Experimental data taken from patent publication US10421774B2 (priority 2016, dated 2019).
Where two headings read alike, the source gives them in different places.

Assays:
Assay in all cases: microbe, parasite or virus in culture
Type in all cases: cell-based, HIV-1
gag V370A/ΔT371 virus = settings: for EC50: Human immunodeficiency virus 1, MT2, read-out: V370A/ΔT371 EC50
Experimental: (§1) Cells. MT-2 cells and 293T cells were obtained from the NIH AIDS Research and Reference Reagent Program. Cell lines were sub-cultured twice a week in either RPMI 1640 (MT-2) or DMEM (293T, HeLa) media supplemented with 10% heat inactivated fetal bovine serum (FBS), 100 units/mL of penicillin G and 100 μg/mL of streptomycin. The DMEM medium was additionally supplemented with 10 mM HEPES buffer, pH 7.55, 2 mM L-glutamine and 0.25 μg/mL of amphotericin B.
(§2) Viruses. NLRepRluc virus contains the Renilla luciferase marker in place of the viral nef gene. The proviral plasmid pNLRepRluc was constructed at Bristol-Myers Squibb, starting from a proviral NL4-3 clone (B subtype) that was obtained from the NIH AIDS Research and Reference Reagent Program. The parental recombinant wild type (WT) virus (NLRepRlucP373S) was derived from NLRepRluc and contains the additional substitution of P373 for serine in Gag (within the SP1 spacer), the most common 373 variation in subtype B. Other recombinant viruses (A364V, V370A/ΔT371 and the “T3325 triple” (T332S/V362I+HIV-1 protease R41G)) were generated by site-directed mutagenesis of plasmid pNLRepRlucP373S to introduce those amino acid substitutions in Gag and protease. Recombinant virus DNA was then used to generate virus stocks by transfection of 293T cells (Lipofectamine PLUS kit, Invitrogen). Titers of virus stocks were determined using a luciferase assay (Dual-Luciferase® Reporter Assay System, Promega, Milwaukee, Wis., USA) endpoint.
(§3) Multiple cycle drug susceptibility assay. Pellets of MT-2 cells were infected with NLRepRlucP373S Gag site-directed viruses, where initial inocula of the reporter strains were normalized using equivalent endpoint luciferase activity signals. Such cell-virus mixtures were resuspended in medium, incubated for 1-hour at 37° C./CO2, and added to compound containing 96-well plates at a final cell density of 10,000 cells per well. The test compounds were 3-fold serially diluted in 100% DMSO, and assayed at a final DMSO concentration of 1%. After 4-5 day incubation at 37° C./CO2, virus yields were determined by Renilla luciferase activity (Dual-Luciferase® Reporter Assay System, Promega). The endpoint luminescence was detected on a Wallac Trilux (PerkinElmer).
(§4) HIV-1 NL4-3 expressing Renilla luciferase gene was converted to the gag V370A/ΔT371 virus by site directed mutagenesis. A364V is a site directed mutant.
(§5) All three recombinant viruses were used as described above in the HIV cell culture assay for the NL4-3 virus.

[1] = system: A364V site directed mutant virus; settings: for EC50: Human immunodeficiency virus 1, MT2, read-out: A364V EC50
Experimental: as §1, §2, §3, §4, §5

[2] = system: T332S/V362I/Pr R41G virus; settings: for EC50: Human immunodeficiency virus 1, MT2, read-out: T332S/V362I/pr41G EC50
Experimental: as §1, §2, §3
T332sN362I/Pr R41G (N14.3, B Clade) virus′ was obtained as follows: Selection for resistance of HIV-1 strain […] virus with the HIV maturation inhibitor (MI) compound
At passage 8 virus was harvested and sequenced.
as §5

[3] = system: NLRepRlucP373S recombinant wild type (WT) virus
Experimental: as §1, §2, §3
(§6) The 50% inhibitory concentrations (EC50S) were calculated by using the exponential form of the median effect equation where Percent Inhibition=1/[1+(EC50/drug conc.^m], where m is a parameter that reflects the slope of the concentration-response curve. Background was taken as the residual signal observed upon inhibition at the highest concentration of a control protease inhibitor, NFV (3 μM).
as §6, with “The 90%” for “The 50%”, “concentrations (EC90S)” for “concentrations (EC50S)”, “where ECF=[(F/(100−F)]^1/H·EC50,” for “where Percent Inhibition=1/[1+(EC50/drug conc.^m],”, “where H” for “where m”

[4] = Human immunodeficiency virus 1, MT2, read-out: WT EC50

| SMILES | EC50 (gag V370A/ΔT371 virus) | EC50 [1] | EC50 [2] | EC50 [3, 4] | EC90 (gag V370A/ΔT371 virus; Human immunodeficiency virus 1, read-out: V370A/ΔT371 EC90) | EC90 ([1]; Human immunodeficiency virus 1, read-out: A364V EC90) | EC90 ([2]; Human immunodeficiency virus 1, read-out: T332S/V362I/prR41G EC90) | EC50 ([3]; Human immunodeficiency virus 1, read-out: WT EC50) |
| --- | --- | --- | --- | --- | --- | --- | --- | --- |
| C=C(C)[C@@H]1CC[C@]2(NCCN3CCS(=O)(=O)CC3)CC[C@]3(C)[C@H](CC[C@@H]4[C@@]5(C)CC=C(C6=CC[C@](COc7ncccc7C(N)=O)(C(=O)O)CC6)C(C)(C)[C@@H]5CC[C@]43C)[C@@H]12 [Example 24, (R)-1-(((3-carbamoylpyridin-2-yl)oxy)methyl)-4-((1R,3aS,5aR,5bR,7aR,11aS,11bR,13aR,13bR)-3a-((2-(1,1-dioxidothiomorpholino)ethyl)amino)-5a,5b,8,8,11a-pentamethyl-1-(prop-1-en-2-yl)-2,3,3a,4,5,5a,5b,6,7,7a,8,11,11a,11 b,12,13,13a,13b-octadecahydro-1H-cyclopenta[a]chrysen-9-yl)cyclohex-3-ene-1-carboxylic acid] | 12 nM | 8 nM | 12 nM | 2 nM |  |  |  |  |
| C=C(C)[C@@H]1CC[C@]2(NCCN3CCS(=O)(=O)CC3)CC[C@]3(C)[C@H](CC[C@@H]4[C@@]5(C)CC=C(C6=CC[C@@](COc7ncccc7C#N)(C(=O)O)CC6)C(C)(C)[C@@H]5CC[C@]43C)[C@@H]12 [Example 25, (S)-1-(((3-cyanopyridin-2-yl)oxy)methyl)-4-((1R,3aS,5aR,5bR,7aR,11aS,11bR,13aR,13bR)-3a-((2-(1,1-dioxidothiomorpholino)ethyl)amino)-5a,5b,8,8,11a-pentamethyl-1-(prop-1-en-2-yl)-2,3,3a,4,5,5a,5b,6,7,7a,8,11,11a,11b,12,13,13a,13b-octadecahydro-1H-cyclopenta[a]chrysen-9-yl)cyclohex-3-ene-1-carboxylic acid] | 10 nM | 18 nM | 10 nM | 2 nM | 2 nM | 41 nM | 21 nM | 2 nM |
| C=C(C)[C@@H]1CC[C@]2(NCCN3CCS(=O)(=O)CC3)CC[C@]3(C)[C@H](CC[C@@H]4[C@@]5(C)CC=C(C6=CC[C@@](COc7ncccc7C(N)=O)(C(=O)O)CC6)C(C)(C)[C@@H]5CC[C@]43C)[C@@H]12 [Example 26, (S)-1-(((3-carbamoylpyridin-2-yl)oxy)methyl)-4-((1R,3aS,5aR,5bR,7aR,11aS,11bR,13aR,13bR)-3a-((2-(1,1-dioxidothiomorpholino)ethyl)amino)-5a,5b,8,8,11a-pentamethyl-1-(prop-1-en-2-yl)-2,3,3a,4,5,5a,5b,6,7,7a,8,11,11a,11b,12,13,13a,13b-octadecahydro-1H-cyclopenta[a]chrysen-9-yl)cyclohex-3-ene-1-carboxylic acid] | 41 nM | 28 nM | 41 nM | 5 nM |  |  |  |  |
| C=C(C)[C@@H]1CC[C@]2(NCCN3CCS(=O)(=O)CC3)CC[C@]3(C)[C@H](CC[C@@H]4[C@@]5(C)CC=C(C6=CC[C@](COc7ncccc7C(=O)OC)(C(=O)O)CC6)C(C)(C)[C@@H]5CC[C@]43C)[C@@H]12 [Example 27] | < 50 nM | < 50 nM | < 50 nM | < 50 nM |  |  |  |  |
| C=C(C)[C@@H]1CC[C@]2(NCCN3CCS(=O)(=O)CC3)CC[C@]3(C)[C@H](CC[C@@H]4[C@@]5(C)CC=C(C6=CC[C@@](COc7cccc(OC)n7)(C(=O)O)CC6)C(C)(C)[C@@H]5CC[C@]43C)[C@@H]12 [Example 28, (S)-4-((1R,3aS,5aR,5bR,7aR,11aS,11bR,13aR,13bR)-3a-((2-(1,1-dioxidothiomorpholino)ethyl)amino)-5a,5b,8,8,11a-pentamethyl-1-(prop-1-en-2-yl)-2,3,3a,4,5,5a,5b,6,7,7a,8,11,11a,11 b,12,13,13a,13b-octadecahydro-1H-cyclopenta[a]chrysen-9-yl)-1-(((6-methoxypyridin-2-yl)oxy)methyl)cyclohex-3-ene-1-carboxylic acid] | 21 nM | 21 nM | 21 nM | 3 nM |  |  |  |  |
| C=C(C)[C@@H]1CC[C@]2(NCCN3CCS(=O)(=O)CC3)CC[C@]3(C)[C@H](CC[C@@H]4[C@@]5(C)CC=C(C6=CC[C@@](COc7cccc(F)n7)(C(=O)O)CC6)C(C)(C)[C@@H]5CC[C@]43C)[C@@H]12 [Example 29, (S)-4-((1R,3aS,5aR,5bR,7aR,11aS,11bR,13aR,13bR)-3a-((2-(1,1-dioxidothiomorpholino)ethyl)amino)-5a,5b,8,8,11a-pentamethyl-1-(prop-1-en-2-yl)-2,3,3a,4,5,5a,5b,6,7,7a,8,11,11a,11 b,12,13,13a,13b-octadecahydro-1H-cyclopenta[a]chrysen-9-yl)-1-(((6-fluoropyridin-2-yl)oxy)methyl)cyclohex-3-ene-1-carboxylic acid] | 21 nM | 5 nM | 21 nM | 5 nM |  |  |  |  |
| C=C(C)[C@@H]1CC[C@]2(NCCN3CCS(=O)(=O)CC3)CC[C@]3(C)[C@H](CC[C@@H]4[C@@]5(C)CC=C(C6=CC[C@@](COc7cc(C(N)=O)ccn7)(C(=O)O)CC6)C(C)(C)[C@@H]5CC[C@]43C)[C@@H]12 [Example 30, (S)-1-(((4-carbamoylpyridin-2-yl)oxy)methyl)-4-((1R,3aS,5aR,5bR,7aR,11aS,11bR,13aR,13bR)-3a-((2-(1,1-dioxidothiomorpholino)ethyl)amino)-5a,5b,8,8,11a-pentamethyl-1-(prop-1-en-2-yl)-2,3,3a,4,5,5a,5b,6,7,7a,8,11,11a,11b,12,13,13a,13b-octadecahydro-1H-cyclopenta[a]chrysen-9-yl)cyclohex-3-ene-1-carboxylic acid] | < 50 nM | < 50 nM | < 50 nM | < 50 nM |  |  |  |  |
| C=C(C)[C@@H]1CC[C@]2(NCCN3CCS(=O)(=O)CC3)CC[C@]3(C)[C@H](CC[C@@H]4[C@@]5(C)CC=C(C6=CC[C@@](COc7ccccn7)(C(=O)O)CC6)C(C)(C)[C@@H]5CC[C@]43C)[C@@H]12 [Example 31, (S)-4-((1R,3aS,5aR,5bR,7aR,11aS,11bR,13aR,13bR)-3a-((2-(1,1-dioxidothiomorpholino)ethyl)amino)-5a,5b,8,8,11a-pentamethyl-1-(prop-1-en-2-yl)-2,3,3a,4,5,5a,5b,6,7,7a,8,11,11a,11 b,12,13,13a,13b-octadecahydro-1H-cyclopenta[a]chrysen-9-yl)-1-((pyridin-2-yloxy)methyl)cyclohex-3-ene-1-carboxylic acid] | 9 nM | 6 nM | 9 nM | 2 nM |  |  |  |  |
| C=C(C)[C@@H]1CC[C@]2(NCCN3CCS(=O)(=O)CC3)CC[C@]3(C)[C@H](CC[C@@H]4[C@@]5(C)CC=C(C6=CC[C@@](COc7cnccn7)(C(=O)O)CC6)C(C)(C)[C@@H]5CC[C@]43C)[C@@H]12 [Example 32, (S)-4-((1R,3aS,5aR,5bR,7aR,11aS,11bR,13aR,13bR)-3a-((2-(1,1-dioxidothiomorpholino)ethyl)amino)-5a,5b,8,8,11a-pentamethyl-1-(prop-1-en-2-yl)-2,3,3a,4,5,5a,5b,6,7,7a,8,11,11a,11b,12,13,13a,13b-octadecahydro-1H-cyclopentatalchrysen-9-yl)-1-((pyrazin-2-yloxy)methyl)cyclohex-3-ene-1-carboxylic acid] | < 50 nM | < 50 nM | < 50 nM | < 50 nM |  |  |  |  |
